Test results taken from paper PMC6522510 (Nature Communications, 2019).
Where two headings read alike, the source gives them in different places.

Tests used:
Set-up in all cases: species or system AML cell lines (8); Primary HTS, single concentration about 10 uM, Cell Titer Glo viability; log10 luminescence, per cent inhibition relative to cycloheximide control
Conditions in all cases: 72 h, relative to cycloheximide control, log10 luminescence, inhibitor
[1] = tested on: MOLM-13
[2] = tested on: U937
[3] = tested on: MV4-11
[4] = tested on: CMK
[5] = tested on: M07e
[6] = tested on: ML-2
[7] = tested on: CMS
[8] = tested on: CHRF288-11

SMILES	MOLM-13 %inh [1] [%]	U937 %inh [2] [%]	MV4-11 %inh [3] [%]	CMK %inh [4] [%]	M07e %inh [5] [%]	ML-2 %inh [6] [%]	CMS %inh [7] [%]	CHRF288-11 %inh [8] [%]	MOLM-13 %inh ([1]; MOLM-13 %inh, 10 µM) [%]	U937 %inh ([2]; U937 %inh, 10 µM) [%]	MV4-11 %inh ([3]; MV4-11 %inh, 10 µM) [%]	CMK %inh ([4]; CMK %inh, 10 µM) [%]	M07e %inh ([5]; M07e %inh, 10 µM) [%]	ML-2 %inh ([6]; ML-2 %inh, 10 µM) [%]	CMS %inh ([7]; CMS %inh, 10 µM) [%]	CHRF288-11 %inh ([8]; CHRF288-11 %inh, 10 µM) [%]
COc1cccc(Nc2nccc(-c3cnn4ncccc34)n2)c1 [SJ000573028-1, U18020/75/1]	96.5	74.45	76.07	112.7	96.77	57.03	93.88	61.5								
COC(=O)Nc1nc2ccc(Sc3ccc(NC(=O)Nc4cc(C(F)(F)F)ccc4F)cc3)cc2[nH]1 [SJ000573029-1, T229/195/1]	17.62	5.795	2.362	38.89	3.372	2.621	-0.01293	10.2								
NC(=O)c1cccc(Nc2nccc(Nc3cccc4[nH]ncc34)n2)c1 [SJ000573030-1, JA205171-001A6]	22.42	-0.8011	23.15	-1.424	5.4	2.579	1.464	16.39								
Cc1cccc(Nc2ncc(-c3ccccc3)o2)c1 [SJ000573031-1, U21834/25/1]	78.79	0.1537	58.38	4.152	2.356	2.781	1.47	1.444								
NC(=O)c1sc(-n2cnc3ccccc32)cc1OCc1ccccc1Br [SJ000573032-1, U22538/78/1]	1.858	1.777	0.1879	4.627	3.083	42.25	2.746	-0.9565								
O=C(Nc1ccc(Oc2ccc3[nH]c(NC(=O)c4ccco4)nc3c2)cc1)Nc1cc(C(F)(F)F)ccc1F [SJ000573033-1, T261/93/1]	87.05	42.07	70.61	84.76	35.38	20.85	23.46	89.61								
NS(=O)(=O)c1cccc(-c2cc3ccncc3cc2OCc2ccccc2)c1 [SJ000573034-1, R14712/3/10]	2.316	3.709	0.8878	-0.5905	-1.198	0.9825	1.551	2.678								
COc1cccc(-n2ncc3c(N/N=C/c4ccc(C)cc4)ncnc32)c1 [SJ000573035-1, U19125/70/4]	-2.64	2.182	-1.749	-4.291	-2.359	-2.47	5.04	-5.466								
CNC(=O)c1ncccc1Nc1nc(Nc2cc3c(cc2OC)CCCN3C(=O)CN(C)C)nc2[nH]ccc12 [SJ000573036-1, N6938-65-1]	47.47	17.5	4.775	7.075	30.44	45.98	1.812	21.29								
COc1cccc(-n2ncc3c(N/N=C/c4ccncc4)ncnc32)c1 [SJ000573037-1, U25132/28/11]	-2.08	-2.89	1.553	-6.6	-4.147	0.6096	4.136	6.081								
COc1cc2c(cc1Nc1nc(Nc3ccsc3C(N)=O)c3cc[nH]c3n1)N(C(=O)CN(C)C)CCC2(C)C [SJ000573038-1, N3343-83-1]	92.5	51.73	43.78	81.26	57.48	44.68	16.39	128.8								
C[C@@H](Oc1cc(-n2cnc3ccc(OCC4CCN(C)CC4)cc32)sc1C(N)=O)c1ccccc1Cl [SJ000573039-1, U21976/12/1]	92.23	67.65	68.81	58.58	70.45	55.39	55.73	126.6								
COc1cc(C)c(NC(=O)CN(C)C)cc1Nc1nc(Nc2cccc(F)c2C(N)=O)c2cc[nH]c2n1 [SJ000573040-1, N5326-72-2]	90.07	70.41	56.47	111.2	103.3	42.89	31.36	60.84								
Nc1ccc(C#Cc2cncnc2Nc2ccc(OCc3cccc(F)c3)c(Cl)c2)cc1 [SJ000573041-1, U17810/18/1]	7.505	3.684	4.494	13.47	8.047	5.257	3.795	2.448								
COc1cc(C)c(N(C)C(=O)CN(C)C)cc1Nc1nc(Nc2cccc(F)c2C(N)=O)c2cc[nH]c2n1 [SJ000573042-1, N5326-79-1]	-1.115	-0.591	3.146	3.967	-1.728	14.99	1.596	20.31								
COc1cc2c(cc1Nc1nc(N3CCc4ccccc43)c3cc[nH]c3n1)N(C(=O)CN(C)C)CC2 [SJ000573043-1, N7699-100-1]	9.876	74.23	75.42	123.9	130.8	54.96	96.79	128.5								
COc1cc2c(cc1Nc1nc(Nc3ccsc3C(N)=O)c3cc[nH]c3n1)N(C(=O)CN(C)C)CCC2 [SJ000573044-1, N3343-60-3]	89.42	74.84	66.76	100.5	106	41.91	65.93	98.1								
Nc1ncnc2occ(-c3ccc(NC(=O)Nc4cccc(C(F)(F)F)c4)cc3)c12 [SJ000573045-1, CL210513-033A3]	88.68	26.65	73.96	22.69	17.9	6.046	11.5	45.6								
CCn1c(-c2nonc2N)nc2cncc(C(=O)NCCNC)c21 [SJ000573046-1, FIDE/U1002/66/2]	9.392	25.48	47.15	39.87	12.62	17.45	12.48	15.2								
CCn1c(-c2nonc2N)nc2cncc(C(=O)N3CCNCC3)c21 [SJ000573047-1, TP100582-069A1]	0.2835	1.348	2.106	-1.515	4.058	1.727	1.245	-1.797								
Nc1ncnc2occ(-c3ccc(NC(=O)Nc4cc(C(F)(F)F)ccc4F)cc3)c12 [SJ000573048-1, CL210513-029A3 | T299/89/1 | YF46626-103A2]									82.99	17.4	68.76	31.71	14.83	1.043	8.741	26.14
